Assay results published in US11077050B2, “Formulation for parenteral administration” (MERCK SHARP & DOHME CORP., priority 2017, dated 2021).

Test: pKa of doravirine
Format: physicochemical

pKa: 9.47
Structure (SMILES): Cn1c(Cn2ccc(C(F)(F)F)c(Oc3cc(Cl)cc(C#N)c3)c2=O)n[nH]c1=O [Doravirine]
